Legend:
[1] = target: CDK9/CyclinT1 (Homo sapiens (Human), UniProt P50750); assay: CDK9/CycT1 high ATP kinase assay (TR-FRET); type: biochemical; settings: 2 mM ATP (high ATP); median; read-out: CDK9/CyclinT1, 2 mM ATP (high ATP), IC50 - [mol/l] (median)
Description: CDK9/CycT1-inhibitory activity of compounds of the present invention at a high ATP concentration after preincubation of enzyme and test compounds was quantified employing the CDK9/CycT1 TR-FRET assay as described in the following paragraphs.
Recombinant full-length His-tagged human CDK9 and CycT1, expressed in insect cells and purified by Ni-NTA affinity chromatography, were purchased from Life Technologies (Cat. No PV4131). As substrate for the kinase reaction biotinylated peptide biotin-Ttds-YISPLKSPYKISEG (C-terminus in amide form) was used which can be purchased e.g. form the company JERINI peptide technologies (Berlin, Germany).
For the assay 50 nanoL of a 100 fold concentrated solution of the test compound in DMSO was pipetted into either a black low volume 384 well microtiter plate or a black 1536 well microtiter plate (both Greiner Bio-One, Frickenhausen, Germany), 2 microL of a solution of CDK9/CycT1 in aqueous assay buffer [50 millimol/L Tris/HCl PH 8.0, 10 millimol/L MgCl2, 1.0 millimol/L dithiothreitol, 0.1 millimol/L sodium ortho-vanadate, 0.01% (v/v) Nonidet-P40 (Sigma)] were added and the mixture was incubated for 15 min at 22° C. to allow pre-binding of the test compounds to the enzyme before the start of the kinase reaction. Then the kinase reaction was started by the addition of 3 microL of a solution of adenosine-tri-phosphate (ATP, 3.3 millimol/L=>final conc. in the 5 microL assay volume is 2 millimol/L) and substrate (1.25 micromol/L=>final conc. in the 5 microL assay volume is 0.75 micromol/L) in assay buffer and the resulting mixture was incubated for a reaction time of 25 min at 22° C. The concentration of CDK9/CycT1 was adjusted depending of the activity of the enzyme lot and was chosen appropriate to have the assay in the linear range, typical concentrations were in the range of 0.5 microg/ml. The reaction was stopped by the addition of 3 microL of a solution of TR-FRET detection reagents (0.33 micromol/L streptavidine-XL665 [Cisbio Bioassays, Codolet, France] and 1.67 nanomol/L anti-RB (pSer807/pSer811)-antibody from BD Pharmingen [#558389] and 2 nanomol/L LANCE EU-W1024 labeled anti-mouse IgG antibody [Perkin-Elmer, product no. AD0077]) in an aqueous EDTA-solution (167 millimol/L EDTA, 0.2% (w/v) bovine serum albumin in 100 millimol/L HEPES pH 7.5).
The resulting mixture was incubated 1 h at 22° C. to allow the formation of complex between the phosphorylated biotinylated peptide and the detection reagents. Subsequently the amount of phosphorylated substrate was evaluated by measurement of the resonance energy transfer from the Eu-chelate to the streptavidine-XL. Therefore, the fluorescence emissions at 620 nm and 665 nm after excitation at 350 nm was measured in a TR-FRET reader, e.g. a Pherastar (BMG Labtechnologies, Offenburg, Germany) or a Viewlux (Perkin-Elmer). The ratio of the emissions at 665 nm and at […] was taken as the measure for the amount of phosphorylated substrate. The data were normalised (enzyme reaction without inhibitor=0% inhibition, all other assay components but no enzyme=100% inhibition).

[2] = tested on: MDA-MB-231, human breast cancer cells; assay: Proliferation assay MDA-MB-231 (crystal violet); type: cell-based; settings: 96 h, MDA-MB-231 parental cells, 4 days, median, read-out: Prolif-MDA MB-231, IC50 - [mol/l] (median)
Description: Human tumour cells were originally obtained from the American Type Culture Collection (ATCC), or from the Deutsche Sammlung von Mikroorganismen und Zellkulturen (DSMZ, German Collection of Microorganisms and Cell Cultures). Cultivated tumour cells (CAL-120, human breast adenocarcinoma cells, DSMZ ACC-459; MDA-MB-231, human breast cancer cells, ATCC HTB-26) were plated at a density of 4,000 cells/well in a 96-well multitier plate in 200 microL of their respective growth medium supplemented 10% fetal calf serum. After 24 hours, the cells of one plate (zero-point plate) were stained with crystal violet (see below), while the medium of the other plates was supplemented with the test substances in various concentrations (0 micromol/L, as well as in the range of 0.01-10 micromol/L; the final concentration of the solvent dimethyl sulfoxide was adjusted to 0.1%) using a Tecan HP D300 Digital Dispenser. The cells were incubated for 4 days in the presence of test substances. Cell proliferation was determined by staining the cells with crystal violet: the cells were fixed by adding 20 microL/measuring point of an 11% glutaric aldehyde solution for 15 minutes at room temperature. After three washing cycles of the fixed cells with water, the plates were dried at room temperature. The cells were stained by adding 100 microL/measuring point of a 0.1% crystal violet solution (pH 3.0). After three washing cycles of the stained cells with water, the plates were dried at room temperature. The dye was dissolved by adding 100 microL/measuring point of a 10% acetic acid solution. The extinction was determined by photometry at a wavelength of 595 nm. The change of cell number, in percent, was calculated by normalization of the measured values to the extinction values of the zero-point plate (=0%) and the extinction of the untreated (0 μM) cells (=100%). The IC50 values (inhibitory concentration at 50% of maximal effect) were determined by means of a 4 parameter fit.

[3] = target: CDK12 (Homo sapiens (Human), UniProt Q9NYV4); assay: CDK12 nuclear protein level: immunofluorescence/high content analysis in CAL-120 cells; type: cell-based; settings: 24 h, nuclear CDK12 staining intensity, median, read-out: CDK12 degradation IF, DC50 - [mol/l] (median)
CDK12, sequence (Q9NYV4 whole entry): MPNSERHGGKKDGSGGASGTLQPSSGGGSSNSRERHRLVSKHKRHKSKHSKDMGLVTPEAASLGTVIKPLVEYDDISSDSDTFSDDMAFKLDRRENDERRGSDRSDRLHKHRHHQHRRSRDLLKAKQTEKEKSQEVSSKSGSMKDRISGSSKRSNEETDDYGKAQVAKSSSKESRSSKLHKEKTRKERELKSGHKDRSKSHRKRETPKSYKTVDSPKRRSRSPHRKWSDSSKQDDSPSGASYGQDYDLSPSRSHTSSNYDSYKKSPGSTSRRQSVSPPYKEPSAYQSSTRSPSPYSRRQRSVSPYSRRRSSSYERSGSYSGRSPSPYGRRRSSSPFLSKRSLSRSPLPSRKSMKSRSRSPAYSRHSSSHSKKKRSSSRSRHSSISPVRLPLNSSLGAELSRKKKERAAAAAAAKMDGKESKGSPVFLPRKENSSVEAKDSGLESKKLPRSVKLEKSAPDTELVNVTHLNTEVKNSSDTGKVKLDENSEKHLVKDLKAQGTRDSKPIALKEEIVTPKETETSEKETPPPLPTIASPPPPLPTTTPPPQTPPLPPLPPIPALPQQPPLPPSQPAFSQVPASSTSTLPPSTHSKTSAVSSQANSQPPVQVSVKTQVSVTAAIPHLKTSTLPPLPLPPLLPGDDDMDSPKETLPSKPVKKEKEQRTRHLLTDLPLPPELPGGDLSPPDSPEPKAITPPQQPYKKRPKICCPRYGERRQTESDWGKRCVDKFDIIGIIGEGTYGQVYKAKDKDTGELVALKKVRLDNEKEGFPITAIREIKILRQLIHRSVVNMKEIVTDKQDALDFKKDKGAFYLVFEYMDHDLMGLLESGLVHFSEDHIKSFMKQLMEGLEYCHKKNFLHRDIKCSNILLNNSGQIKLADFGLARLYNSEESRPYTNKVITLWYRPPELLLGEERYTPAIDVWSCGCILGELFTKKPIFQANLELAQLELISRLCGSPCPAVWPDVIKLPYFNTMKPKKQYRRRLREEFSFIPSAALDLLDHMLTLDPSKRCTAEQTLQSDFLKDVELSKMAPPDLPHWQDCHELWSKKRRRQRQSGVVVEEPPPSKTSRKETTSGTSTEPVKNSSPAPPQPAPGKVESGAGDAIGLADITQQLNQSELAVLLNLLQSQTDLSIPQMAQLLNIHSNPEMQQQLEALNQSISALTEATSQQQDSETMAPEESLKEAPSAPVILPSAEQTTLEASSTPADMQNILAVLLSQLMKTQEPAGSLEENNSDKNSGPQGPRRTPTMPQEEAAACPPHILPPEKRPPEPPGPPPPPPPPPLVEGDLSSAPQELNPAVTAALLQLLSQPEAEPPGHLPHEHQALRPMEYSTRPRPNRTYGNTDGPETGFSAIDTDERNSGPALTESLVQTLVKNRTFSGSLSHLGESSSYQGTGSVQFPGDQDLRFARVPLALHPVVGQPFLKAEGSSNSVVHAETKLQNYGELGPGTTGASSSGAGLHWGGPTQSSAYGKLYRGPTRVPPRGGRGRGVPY
CDK12, sequence (O75909 whole entry partner): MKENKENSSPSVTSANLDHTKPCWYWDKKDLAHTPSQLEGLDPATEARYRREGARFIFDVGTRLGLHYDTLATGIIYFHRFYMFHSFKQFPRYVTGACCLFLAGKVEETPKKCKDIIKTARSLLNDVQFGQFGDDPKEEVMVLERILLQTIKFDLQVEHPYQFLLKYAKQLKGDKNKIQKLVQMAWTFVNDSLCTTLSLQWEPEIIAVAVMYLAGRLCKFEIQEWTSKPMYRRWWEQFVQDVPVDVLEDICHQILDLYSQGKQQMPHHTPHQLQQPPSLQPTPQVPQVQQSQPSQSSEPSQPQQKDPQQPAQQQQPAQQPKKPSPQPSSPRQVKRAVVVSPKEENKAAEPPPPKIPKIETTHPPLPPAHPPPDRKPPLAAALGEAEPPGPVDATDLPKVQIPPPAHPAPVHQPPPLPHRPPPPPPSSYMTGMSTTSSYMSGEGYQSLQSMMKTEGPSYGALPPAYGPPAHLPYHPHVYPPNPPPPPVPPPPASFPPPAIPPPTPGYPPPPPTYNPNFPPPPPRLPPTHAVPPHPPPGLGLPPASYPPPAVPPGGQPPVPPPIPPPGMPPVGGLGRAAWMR
Description: In the context of the present invention, the term “DC50 CDK12” refers to the DC50 values obtained according to the assay described in this section (7) herein below, i.e. the DC50 values for the degradation of CDK12.
CAL-120 human breast cancer cells (DSMZ ACC 459) are seeded in 1536-well microtiter plates (800 cells per well) containing 50 nanoL of compounds in Dose-Response. Control wells received DMSO or Example 4. Plates are then incubated for 24 h at 37° C. in an humidified incubator and fixed with 4% PFA for 10 min. Then immunofluorescence (IF) against CDK12 (CellSignalling CDK12 Antibody #11973, rabbit, 1:100 dilution) is performed using standard IF protocols. Cells are then stained with Hoechst 33342 (Life Technologies, H-1399, 0.1 microg/ml) and imaged on an automated confocal microscopy system (e.g. Perkin Elmer Opera Phenix). Nuclear and cytoplasmic intensity as well as the nuclear/cytoplasmic intensity ratio is determined by automated image analysis using custom generated scripts (MetaXpress). Data is then transferred to Genedata Screener software, normalized to DMSO and control and DC50 values (degrading concentration to achieve 50% reduction of nuclear CDK12 staining intensity relative to controls) are reported.

CDK9/CyclinT1, sequence (P50750 whole entry): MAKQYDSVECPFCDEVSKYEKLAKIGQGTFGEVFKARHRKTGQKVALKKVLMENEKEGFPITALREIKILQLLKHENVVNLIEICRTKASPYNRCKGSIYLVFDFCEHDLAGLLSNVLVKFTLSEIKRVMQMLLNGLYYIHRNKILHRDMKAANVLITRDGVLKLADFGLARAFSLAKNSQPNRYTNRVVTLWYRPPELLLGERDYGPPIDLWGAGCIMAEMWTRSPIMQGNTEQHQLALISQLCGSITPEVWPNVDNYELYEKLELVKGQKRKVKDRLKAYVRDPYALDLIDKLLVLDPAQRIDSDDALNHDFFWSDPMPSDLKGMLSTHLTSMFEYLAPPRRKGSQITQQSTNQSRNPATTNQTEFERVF
CDK9/CyclinT1, sequence (O60563 whole entry partner): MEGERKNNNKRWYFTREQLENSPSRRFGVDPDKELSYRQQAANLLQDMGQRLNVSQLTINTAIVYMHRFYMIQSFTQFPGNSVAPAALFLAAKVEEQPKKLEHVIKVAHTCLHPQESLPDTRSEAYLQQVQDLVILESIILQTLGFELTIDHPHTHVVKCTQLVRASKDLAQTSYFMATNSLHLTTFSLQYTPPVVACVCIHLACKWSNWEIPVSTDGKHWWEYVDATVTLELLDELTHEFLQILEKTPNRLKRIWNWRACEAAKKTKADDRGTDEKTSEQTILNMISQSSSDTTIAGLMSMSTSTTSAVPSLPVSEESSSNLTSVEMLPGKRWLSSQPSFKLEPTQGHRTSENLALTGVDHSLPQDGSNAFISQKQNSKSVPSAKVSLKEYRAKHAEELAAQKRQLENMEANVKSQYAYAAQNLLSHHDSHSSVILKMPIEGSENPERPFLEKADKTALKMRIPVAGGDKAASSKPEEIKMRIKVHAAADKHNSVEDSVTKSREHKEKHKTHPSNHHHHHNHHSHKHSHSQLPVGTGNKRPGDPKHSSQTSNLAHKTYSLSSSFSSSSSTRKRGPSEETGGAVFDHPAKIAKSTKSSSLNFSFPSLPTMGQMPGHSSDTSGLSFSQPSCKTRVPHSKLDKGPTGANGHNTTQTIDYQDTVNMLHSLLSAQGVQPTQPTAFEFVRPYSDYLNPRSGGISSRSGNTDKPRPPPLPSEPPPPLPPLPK

Row | SMILES | IC50 [1] [nM] | IC50 [2] [nM] | DC50 [3] [nM]
1 | FC(F)(F)Oc1ccc(-c2cnc(CNc3nc(N4CCOCC4)nc4c(Br)cnn34)[nH]2)cc1 [Example 4, 8-bromo-2-(morpholin-4-yl)-N-({5-[4-(trifluoromethoxy)phenyl]-1H-imidazol-2-yl}methyl)pyrazolo[1,5-a][1,3,5]triazin-4-amine] | > 20000 | 123 | > 1000
2 | FC(F)(F)c1ccc(-c2nnc(CNc3nc(N4CCOCC4)nn4c(C(F)(F)F)cnc34)[nH]2)cc1 [Example 11, 2-(morpholin-4-yl)-7-(trifluoromethyl)-N-({5-[4-(trifluoromethyl)phenyl]-4H-1,2,4-triazol-3-yl}methyl)imidazo[2,1-f][1,2,4]triazin-4-amine] | > 20000 | 434 | 920
3 | FC(F)(F)c1ccc(-c2cnc(CNc3nc(N4CCOCC4)nn4c(C(F)(F)F)cnc34)[nH]2)cc1 [Example 7, 2-(morpholin-4-yl)-7-(trifluoromethyl)-N-({5-[4-(trifluoromethyl)phenyl]-1H-imidazol-2-yl}methyl)imidazo[2,1-f][1,2,4]triazin-4-amine] | > 20000 | 90.5 | 671
4 | FC(F)(F)c1ccc(-c2nnc(CNc3nc(N4CCOCC4)nc4c(C(F)(F)F)cnn34)[nH]2)cc1 [Example 6, 2-(morpholin-4-yl)-8-(trifluoromethyl)-N-({5-[4-(trifluoromethyl)phenyl]-4H-1,2,4-triazol-3-yl}methyl)pyrazolo[1,5-a][1,3,5]triazin-4-amine] | > 20000 | 777 | 1000
5 | FC(F)(F)c1ccc(-c2cnc(CNc3nc(N4CCOCC4)nn4c(C(F)(F)F)cnc34)[nH]2)cn1 [Example 12, 2-(morpholin-4-yl)-7-(trifluoromethyl)-N-({5-[6-(trifluoromethyl)pyridin-3-yl]-1H-imidazol-2-yl}methyl)imidazo[2,1-f][1,2,4]triazin-4-amine] | > 20000 | 22.5 | > 1000
6 | FC(F)(F)Oc1ccc(-c2nnc(CNc3nc(N4CCOCC4)nn4c(C(F)(F)F)cnc34)[nH]2)cc1 [Example 14, 2-(morpholin-4-yl)-N-({5-[4-(trifluoromethoxy)phenyl]-4H-1,2,4-triazol-3-yl}methyl)-7-(trifluoromethyl)imidazo[2,1-f][1,2,4]triazin-4-amine] | > 20000 | 319 | 665
7 | FC(F)(F)Oc1ccc(-c2cnc(CNc3nc(N4CCOCC4)nc4c(C(F)(F)F)cnn34)[nH]2)cc1 [Example 10, 2-(morpholin-4-yl)-N-({5-[4-(trifluoromethoxy)phenyl]-1H-imidazol-2-yl}methyl)-8-(trifluoromethyl)pyrazolo[1,5-a][1,3,5]triazin-4-amine] | > 20000 | 123 | > 1000

From patent US20250066370A1, “BICYCLIC TRIAZINE DERIVATIVES FOR THE TREATMENT OF CANCER” (DEUTSCHES KREBSFORSCHUNGSZENTRUM, priority 2022, published 2025)
